In PMC6751662, “Pharmacological and functional similarities of the human neuropeptide Y system in C. elegans challenges phylogenetic views on the FLP/NPR system” (Cell Communication and Signaling : CCS, 2019):

How the values were obtained:
Format in all cases: cell-based, C. elegans
[1] = target: T1, NPR-5b (Caenorhabditis elegans, UniProt Q6F3C9); experiment: cAMP reporter gene assay, Gs (no forskolin), NPR-5b; conditions: no forskolin, 4 h, transiently transfected HEK293, CRE-luciferase reporter, mean of >=3 independent experiments
T1 sequence (Q6F3C9 1-433): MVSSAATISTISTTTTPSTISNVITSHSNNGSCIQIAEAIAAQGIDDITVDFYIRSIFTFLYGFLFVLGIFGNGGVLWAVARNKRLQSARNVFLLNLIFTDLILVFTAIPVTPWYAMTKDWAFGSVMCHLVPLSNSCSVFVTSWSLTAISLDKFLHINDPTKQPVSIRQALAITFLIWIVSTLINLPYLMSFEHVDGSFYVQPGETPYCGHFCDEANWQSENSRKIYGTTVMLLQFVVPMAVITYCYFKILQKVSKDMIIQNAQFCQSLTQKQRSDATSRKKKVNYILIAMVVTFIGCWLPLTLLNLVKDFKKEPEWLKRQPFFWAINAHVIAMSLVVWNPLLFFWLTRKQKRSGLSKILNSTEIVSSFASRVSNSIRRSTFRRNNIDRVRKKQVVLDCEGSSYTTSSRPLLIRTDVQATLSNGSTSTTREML
Method: (§1) Activation of Gs and Gi/o was assessed with a cAMP reporter gene assay. HEK293 cells grown to 70–80% confluency in 6-well plates were transiently co-transfected with vectors encoding the receptor and the cAMP reporter gene plasmid pGL4.29 [luc2P/CRE/Hygro] (Promega; 4 μg total, 1:1 ratio) using Metafectene Pro (3 μl/μg DNA; Biontex) following the manufacturer’s instructions. 16 h post transfection, the cells were seeded into white 384-well plates at a density of 20,000 cells/well. On the next day, the medium was removed and the cells were stimulated with 20 μl of peptide solution (or forskolin as positive control) in serum-free DMEM for 4 h. For measuring Gi/o activity, the peptide solutions additionally contained 1 μM forskolin to elevate cellular cAMP levels. After incubation, the luciferase substrate OneGlo in lysis buffer (Promega) was added and the luminescence was measured in a microplate reader Tecan Spark (Tecan). Data were analyzed with GraphPad Prism 5.03 and are shown as fold of basal or fold of forskolin in case of Gαi/o activity.
(§2) For in vitro activation, data is presented as mean ± SEM of at least three independent experiments conducted in technical triplicate. […] For the C. elegans NPRs, we considered the strongest response elicited by any of the peptides downstream of a particular receptor as the receptor’s maximal signal. This may or may not be the biological maximum that can be reached by the ‘true’ endogenous agonist. For the human receptors, the response to the established endogenous agonist reflected the maximal signal.

[2] = target: T2, NPR-3 (Caenorhabditis elegans, UniProt P90745); experiment: IP accumulation assay, endogenous Gαq + mock, NPR-3; conditions: 1 h, HBSS + 20 mM LiCl, HEK293 receptor + empty vector, HTRF IP-One, mean of >=3 independent experiments
T2 construct: expressed in transfected cells; host or cells: HEK293
T2 sequence (P90745 1-376): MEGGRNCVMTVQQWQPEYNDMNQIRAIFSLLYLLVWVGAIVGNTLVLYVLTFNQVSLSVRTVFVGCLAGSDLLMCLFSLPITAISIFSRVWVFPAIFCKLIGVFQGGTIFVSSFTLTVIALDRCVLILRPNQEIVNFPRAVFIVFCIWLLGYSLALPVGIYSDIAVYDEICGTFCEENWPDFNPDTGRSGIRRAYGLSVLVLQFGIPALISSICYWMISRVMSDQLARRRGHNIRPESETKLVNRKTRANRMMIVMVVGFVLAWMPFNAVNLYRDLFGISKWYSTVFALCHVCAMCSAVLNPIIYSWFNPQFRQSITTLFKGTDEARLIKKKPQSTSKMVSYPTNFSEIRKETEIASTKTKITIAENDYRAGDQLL
Method: (§3) For measuring IP accumulation, HEK293 cells grown to 70–80% confluency in 6-well plates were transiently co-transfected using Metafectene Pro (2.5 μl/μg DNA; Biontex) with plasmids containing receptor and/or mock (empty pcDNA3.1) (for endogenous Gq-coupling) using 4 μg total DNA in a ratio of 3:1 following the manufacturer’s instructions. For testing Gα16- and GαΔ6qi4myr-coupling, plasmids encoding the corresponding Gα protein were co-transfected instead of mock. Gα16 is naturally promiscuous and stimulates the phospholipase C (PLC) pathway leading to IP production, while the exchange of the C-terminal four amino acids of Gαq for the corresponding residues of Gαi1 in the chimeric GαΔ6qi4myr confers the ability to couple to Gi/o protein-preferring receptors but still stimulate PLC, thus specifically redirecting downstream cellular signaling. 16 h post transfection, the cells were seeded into white 384-well plates at a density of 20,000 cells/well. Media was removed 24 h later and the cells were incubated with the indicated concentration of peptides for 1 h in HBSS + 20 mM LiCl. IP accumulation was measured with the HTRF-based IP-One Gq kit (Cisbio) on a microplate reader (Tecan Spark).
(§4) For in vitro activation, data is presented as mean ± SEM of at least three independent experiments conducted in technical triplicate. […]

[3] = target: T1, NPR-5b; experiment: IP accumulation assay, endogenous Gαq + mock, NPR-5b; conditions: 1 h, HBSS + 20 mM LiCl, HEK293 receptor + empty vector, HTRF IP-One, mean of >=3 independent experiments
Method: as §3, §4

[4] = target: T3, NPR-1 (Caenorhabditis elegans, UniProt Q18534); experiment: cAMP reporter gene assay, Gs (no forskolin), NPR-1; design: host or cells: HEK293; conditions: no forskolin, 4 h, transiently transfected HEK293, CRE-luciferase reporter, mean of >=3 independent experiments
T3 sequence (Q18534 1-457): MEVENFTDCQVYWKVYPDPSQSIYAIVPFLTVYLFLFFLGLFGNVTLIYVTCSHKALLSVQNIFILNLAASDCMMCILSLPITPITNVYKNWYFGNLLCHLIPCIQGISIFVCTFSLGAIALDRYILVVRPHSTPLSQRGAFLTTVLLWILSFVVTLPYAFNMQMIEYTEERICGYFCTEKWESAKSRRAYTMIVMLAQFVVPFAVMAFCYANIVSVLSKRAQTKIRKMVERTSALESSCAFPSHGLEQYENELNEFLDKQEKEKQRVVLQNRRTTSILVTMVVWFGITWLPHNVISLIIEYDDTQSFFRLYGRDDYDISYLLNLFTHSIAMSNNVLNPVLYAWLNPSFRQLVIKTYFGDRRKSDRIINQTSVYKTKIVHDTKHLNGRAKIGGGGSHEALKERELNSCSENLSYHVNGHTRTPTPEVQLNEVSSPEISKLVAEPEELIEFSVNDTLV
Method: as §1, §2

[5] = target: T3, NPR-1; experiment: IP accumulation assay, endogenous Gαq + mock, NPR-1; design: host or cells: HEK293; conditions: 1 h, HBSS + 20 mM LiCl, HEK293 receptor + empty vector, HTRF IP-One, mean of >=3 independent experiments
Method: as §3, §4

[6] = 0.1 nM peptide (so in the source)

cAMP assay Gs, NPR-5b ([1]; 0.1 µM peptide): 0.68 x-fold of basal
cAMP assay Gs, NPR-5b ([1]; 10 µM peptide): 0.68 x-fold of basal
IP assay endog. Gαq + mock, NPR-3 [2, 6]: 0.92 x-fold of basal
IP assay endog. Gαq + mock, NPR-3 ([2]; 10 µM peptide): 1.07 x-fold of basal
IP assay endog. Gαq + mock, NPR-5b [3, 6]: 0.93 x-fold of basal
IP assay endog. Gαq + mock, NPR-5b ([3]; 10 µM peptide): 1.11 x-fold of basal
cAMP assay Gs, NPR-1 ([4]; 0.1 µM peptide): 1.12 x-fold of basal
cAMP assay Gs, NPR-1 ([4]; 10 µM peptide): 1.05 x-fold of basal
IP assay endog. Gαq + mock, NPR-1 [5, 6]: 0.89 x-fold of basal
IP assay endog. Gαq + mock, NPR-1 ([5]; 10 µM peptide): 0.94 x-fold of basal
Substance: APKPKFIRF-NH2 [FLP-5-1, C. elegans FMRFamide-like peptide, C-terminally amidated, synthesized by SPPS]
